Data on 8 compounds can be found in ChEMBL document CHEMBL1122195, “Effect of 4'-halogen substitution on the mutagenicity of trans-4-acetamidostilbene and trans-4-(N-hydroxyacetamido)stilbene in the Salmonella typhimurium test system” (1982).

For the test, the system named is Salmonella typhimurium. The test can be described thus: Comparative mutagenic activity toward Salmonella Typhimurium strain TA-100 at concentration of 10 nmol/plate. The test is classed as functional, Salmonella enterica subsp. enterica serovar Typhimurium.
`CC(=O)Nc1ccc(/C=C/c2ccccc2)cc1` returned a Revertants/plate of 385.
Take `CC(=O)N(O)c1ccc(/C=C/c2ccccc2)cc1`: the Revertants/plate came to 1218.
As for `CC(=O)N(O)c1ccc(/C=C/c2ccc(Cl)cc2)cc1`, the figure is 356; as for `CC(=O)N(O)c1ccc(/C=C/c2ccc(Br)cc2)cc1`, 374.
As for `CC(=O)N(O)c1ccc(/C=C/c2ccc(F)cc2)cc1`, the Revertants/plate is reported as 825.
The figure for `CC(=O)Nc1ccc(/C=C/c2ccc(Cl)cc2)cc1` is 382; for `CC(=O)Nc1ccc(/C=C/c2ccc(F)cc2)cc1` it is 632.
The figure for `CC(=O)Nc1ccc(/C=C/c2ccc(Br)cc2)cc1` is 211.
